Data from ChEMBL document CHEMBL1201862, “PubChem BioAssay data set” (2004).
One block for each molecule: values may come before it. Active and inactive are the calls of the source.

Tests used:
[1] = molecular target: T1, RNA-binding protein pos-1 (Caenorhabditis elegans, UniProt G5EF15); experiment: inhibitors of POS-1/mex-3 RNA binding, dose response, biochemical, fluorescence polarization (AID 1964);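 further: purified POS-1 fused to maltose binding protein made in E. coli; potency of compounds blocking POS-1 binding to fluorescent RNA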
T1 sequence (G5EF15 whole entry): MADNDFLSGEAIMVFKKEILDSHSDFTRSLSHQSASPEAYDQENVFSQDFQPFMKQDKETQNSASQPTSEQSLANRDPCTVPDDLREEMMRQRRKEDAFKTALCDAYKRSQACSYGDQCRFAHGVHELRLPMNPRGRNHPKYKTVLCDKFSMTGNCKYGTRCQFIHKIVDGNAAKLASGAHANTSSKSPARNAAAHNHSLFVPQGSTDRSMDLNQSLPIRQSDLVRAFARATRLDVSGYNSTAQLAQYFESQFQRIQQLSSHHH

[2] = molecular target: T2, Zinc finger protein mex-5 (Caenorhabditis elegans, UniProt Q9XUB2); experiment: MEX-5/TCR-2 RNA interaction inhibitors, dose response, biochemical, C. elegans, fluorescence polarization (AID 1960)
T2 sequence (Q9XUB2 whole entry): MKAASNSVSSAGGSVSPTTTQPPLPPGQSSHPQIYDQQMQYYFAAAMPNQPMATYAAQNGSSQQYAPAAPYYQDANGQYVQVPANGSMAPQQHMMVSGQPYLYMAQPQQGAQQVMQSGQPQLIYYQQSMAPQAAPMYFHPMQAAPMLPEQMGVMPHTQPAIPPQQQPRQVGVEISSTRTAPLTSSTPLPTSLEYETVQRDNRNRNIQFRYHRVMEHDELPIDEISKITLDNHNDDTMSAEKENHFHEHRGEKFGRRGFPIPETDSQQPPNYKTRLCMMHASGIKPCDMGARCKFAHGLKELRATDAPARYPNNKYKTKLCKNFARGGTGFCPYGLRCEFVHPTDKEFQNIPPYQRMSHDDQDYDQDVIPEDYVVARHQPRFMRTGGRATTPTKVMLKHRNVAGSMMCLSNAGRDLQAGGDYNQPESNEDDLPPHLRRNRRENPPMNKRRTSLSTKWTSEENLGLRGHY

[3] = molecular target: T3, Polyadenylate-binding protein 1 (Homo sapiens, UniProt P11940); experiment: PABP1 MLLE–PAM2 interaction inhibitors, dose response, miRNA deadenylation inhibitor project, biochemical, fluorescence polarization, Cy5-PAM2 peptide, secondary (AID 602260); format: functional; settings: read-out: IC50_Mean
T3 sequence (P11940 whole entry): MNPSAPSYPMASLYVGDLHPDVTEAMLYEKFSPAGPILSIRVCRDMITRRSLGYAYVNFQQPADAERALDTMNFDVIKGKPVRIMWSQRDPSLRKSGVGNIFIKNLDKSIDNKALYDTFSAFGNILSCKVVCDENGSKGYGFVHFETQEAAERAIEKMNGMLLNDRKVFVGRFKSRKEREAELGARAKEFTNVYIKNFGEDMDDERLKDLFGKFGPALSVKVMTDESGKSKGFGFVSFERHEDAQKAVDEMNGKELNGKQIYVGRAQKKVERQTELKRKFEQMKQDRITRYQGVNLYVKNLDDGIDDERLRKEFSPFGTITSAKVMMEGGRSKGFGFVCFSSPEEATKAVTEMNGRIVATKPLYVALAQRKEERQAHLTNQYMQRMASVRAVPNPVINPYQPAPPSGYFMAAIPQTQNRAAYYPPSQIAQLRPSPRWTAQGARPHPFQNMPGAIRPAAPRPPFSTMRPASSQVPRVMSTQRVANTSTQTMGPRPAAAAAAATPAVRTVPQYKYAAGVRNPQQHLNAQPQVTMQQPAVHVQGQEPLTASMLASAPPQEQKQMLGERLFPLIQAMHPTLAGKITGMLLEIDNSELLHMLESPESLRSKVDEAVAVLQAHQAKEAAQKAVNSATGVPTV

[4] = molecular target: T3, Polyadenylate-binding protein 1; experiment: PABP1 MLLE–PAM2 binding inhibitor potency, dose response, biochemical, fluorescence polarization, FITC-PAM2 peptide (AID 602259); format: functional; settings: read-out: IC50_Mean
[5] = molecular target: T4, Histone-lysine N-methyltransferase NSD2 (Homo sapiens, UniProt O96028); format: biochemical
T4 sequence (O96028 whole entry): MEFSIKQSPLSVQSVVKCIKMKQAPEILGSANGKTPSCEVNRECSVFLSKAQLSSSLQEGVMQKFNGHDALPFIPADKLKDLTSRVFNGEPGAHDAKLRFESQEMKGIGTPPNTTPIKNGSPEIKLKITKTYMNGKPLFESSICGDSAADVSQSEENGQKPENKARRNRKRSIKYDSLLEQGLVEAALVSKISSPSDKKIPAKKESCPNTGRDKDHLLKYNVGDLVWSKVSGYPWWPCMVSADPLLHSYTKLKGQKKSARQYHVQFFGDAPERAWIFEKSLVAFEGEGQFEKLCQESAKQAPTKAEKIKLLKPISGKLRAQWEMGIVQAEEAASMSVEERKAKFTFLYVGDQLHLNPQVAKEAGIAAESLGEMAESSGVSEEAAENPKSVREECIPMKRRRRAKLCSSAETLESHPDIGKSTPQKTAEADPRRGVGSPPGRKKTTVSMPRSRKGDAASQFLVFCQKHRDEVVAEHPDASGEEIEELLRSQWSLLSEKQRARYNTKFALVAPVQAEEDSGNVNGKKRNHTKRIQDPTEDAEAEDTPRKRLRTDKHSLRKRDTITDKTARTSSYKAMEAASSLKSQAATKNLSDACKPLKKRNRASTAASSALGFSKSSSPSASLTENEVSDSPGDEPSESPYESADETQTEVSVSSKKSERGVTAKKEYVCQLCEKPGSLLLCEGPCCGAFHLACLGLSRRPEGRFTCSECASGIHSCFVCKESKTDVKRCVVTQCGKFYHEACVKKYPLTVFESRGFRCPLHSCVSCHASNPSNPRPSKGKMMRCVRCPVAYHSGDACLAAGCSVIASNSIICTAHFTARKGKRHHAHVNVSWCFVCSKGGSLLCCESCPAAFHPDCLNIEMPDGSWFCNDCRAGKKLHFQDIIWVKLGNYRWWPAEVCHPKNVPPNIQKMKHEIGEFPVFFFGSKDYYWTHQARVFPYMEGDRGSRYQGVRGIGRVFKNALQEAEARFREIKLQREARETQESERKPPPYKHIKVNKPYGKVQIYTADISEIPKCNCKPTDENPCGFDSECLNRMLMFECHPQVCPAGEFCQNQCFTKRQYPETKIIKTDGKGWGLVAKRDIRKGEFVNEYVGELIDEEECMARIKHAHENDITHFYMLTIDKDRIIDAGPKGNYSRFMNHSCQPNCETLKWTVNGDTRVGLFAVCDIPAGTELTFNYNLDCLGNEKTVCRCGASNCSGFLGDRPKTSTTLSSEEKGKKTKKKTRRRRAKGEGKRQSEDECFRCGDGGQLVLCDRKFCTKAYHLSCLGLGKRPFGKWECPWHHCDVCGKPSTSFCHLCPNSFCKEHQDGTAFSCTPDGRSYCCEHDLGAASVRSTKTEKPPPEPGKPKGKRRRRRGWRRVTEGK

[6] = THP-1 cell cytotoxicity, dose response, cytotoxicity control for Vif-APOBEC3G degradation inhibitor project, THP-1 cells (AID 1117359); format: functional; settings: Human immunodeficiency virus 1, THP-1
[7] = molecular target: Glutathione-S-transferase (Schistosoma japonicum, UniProt Q26513); experiment: biotin-GST/anti-GST TR-FRET signal inhibitors, dose response, artefact control for Vif-APOBEC3G degradation inhibitor project, biochemical (AID 1117362); format: functional
Chain of Glutathione-S-transferase (Q26513 whole entry): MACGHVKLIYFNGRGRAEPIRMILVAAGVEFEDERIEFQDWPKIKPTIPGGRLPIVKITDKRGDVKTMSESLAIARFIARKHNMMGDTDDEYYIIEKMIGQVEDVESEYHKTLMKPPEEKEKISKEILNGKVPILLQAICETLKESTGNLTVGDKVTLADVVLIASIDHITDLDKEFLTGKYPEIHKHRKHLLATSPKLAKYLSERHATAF

[8] = Shn3 3'UTR reporter inhibitors, dose response, cell-based, Clone20 osteoblasts, firefly luciferase, cherry-picked (AID 624132); format: functional;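 further: firefly luciferase luminescence from reporter carrying the Shn3 3'UTR in osteoblasts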
[9] = HepG2 cell cytotoxicity, dose response, cytotoxicity control for Shn3 inhibitor project, CellTiter-Glo, cherry-picked (AID 624134); format: functional, cell-based
[10] = control 3'UTR Renilla luciferase suppression, dose response, counter-screen for Shn3 inhibitor project, cell-based, Clone20-Shn3RL, cherry-picked (AID 624133); format: functional
Protein Wnt-3a = Protein Wnt-3a (Mus musculus, UniProt P27467); experiment: Wnt3a-driven reporter signaling inhibition, dose response, selectivity assay for Gli-SUFU antagonist project, Wnt-LIGHT cells, luminescence (AID 651570); format: functional; settings: read-out: IC50_Mean;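 further: Wnt-LIGHT reporter cells stimulated with conditioned medium from Wnt3a-producing cells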
Chain of Protein Wnt-3a (P27467 whole entry): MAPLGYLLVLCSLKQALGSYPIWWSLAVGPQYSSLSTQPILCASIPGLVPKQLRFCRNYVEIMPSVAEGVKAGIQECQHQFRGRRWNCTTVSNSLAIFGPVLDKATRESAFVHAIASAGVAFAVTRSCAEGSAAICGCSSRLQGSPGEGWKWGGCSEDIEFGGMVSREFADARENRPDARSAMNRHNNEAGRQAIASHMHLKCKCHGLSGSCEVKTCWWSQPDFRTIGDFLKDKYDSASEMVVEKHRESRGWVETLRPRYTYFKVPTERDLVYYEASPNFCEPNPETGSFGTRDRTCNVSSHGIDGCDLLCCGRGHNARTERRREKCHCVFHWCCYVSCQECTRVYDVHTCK

[11] = reduction of Shn3 3'UTR firefly luciferase signal, dose response, Schnurri-3 inhibitor project, cell-based, Clone20 osteoblasts, cherry-pick, set 2 (AID 720490); format: functional;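 further: actives lower the luminescence signal as inhibitors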
[12] = molecular target: Peroxisome proliferator-activated receptor gamma/Nuclear receptor corepressor 2 (Homo sapiens, UniProt P37231+Q9Y618); experiment: Counterscreen for NR2E3 inverse agonists: TR-FRET-based biochemical high throughput dose response assay to identify inverse agonists of the interaction between peroxisome proliferator-activated receptor gamma (PPARg) and nuclear receptor co-repressor 2 (NCOR2).; format: functional
[13] = molecular target: Photoreceptor-specific nuclear receptor (Homo sapiens, UniProt Q9Y5X4); experiment: NR2E3 inverse agonists, dose response, biochemical, TR-FRET (AID 463256); format: functional
Chain of Photoreceptor-specific nuclear receptor (Q9Y5X4 whole entry): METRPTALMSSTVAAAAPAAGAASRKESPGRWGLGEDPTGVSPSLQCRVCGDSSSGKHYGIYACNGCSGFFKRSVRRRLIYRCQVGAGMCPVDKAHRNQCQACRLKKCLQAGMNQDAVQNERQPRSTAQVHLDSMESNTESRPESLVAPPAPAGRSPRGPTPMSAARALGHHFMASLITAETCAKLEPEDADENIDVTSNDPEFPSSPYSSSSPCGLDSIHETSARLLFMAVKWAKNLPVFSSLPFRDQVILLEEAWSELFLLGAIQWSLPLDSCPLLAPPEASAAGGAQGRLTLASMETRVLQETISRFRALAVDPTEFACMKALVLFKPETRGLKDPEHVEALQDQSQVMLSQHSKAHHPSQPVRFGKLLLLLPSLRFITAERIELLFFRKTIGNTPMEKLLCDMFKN

[14] = molecular target: Voltage-gated inwardly rectifying potassium channel KCNH2 (Homo sapiens, UniProt Q12809); experiment: hERG protection from proarrhythmic block, potency, dose response, cell-based, thallium flux (AID 2121); format: ADME
Chain of Voltage-gated inwardly rectifying potassium channel KCNH2 (Q12809 whole entry): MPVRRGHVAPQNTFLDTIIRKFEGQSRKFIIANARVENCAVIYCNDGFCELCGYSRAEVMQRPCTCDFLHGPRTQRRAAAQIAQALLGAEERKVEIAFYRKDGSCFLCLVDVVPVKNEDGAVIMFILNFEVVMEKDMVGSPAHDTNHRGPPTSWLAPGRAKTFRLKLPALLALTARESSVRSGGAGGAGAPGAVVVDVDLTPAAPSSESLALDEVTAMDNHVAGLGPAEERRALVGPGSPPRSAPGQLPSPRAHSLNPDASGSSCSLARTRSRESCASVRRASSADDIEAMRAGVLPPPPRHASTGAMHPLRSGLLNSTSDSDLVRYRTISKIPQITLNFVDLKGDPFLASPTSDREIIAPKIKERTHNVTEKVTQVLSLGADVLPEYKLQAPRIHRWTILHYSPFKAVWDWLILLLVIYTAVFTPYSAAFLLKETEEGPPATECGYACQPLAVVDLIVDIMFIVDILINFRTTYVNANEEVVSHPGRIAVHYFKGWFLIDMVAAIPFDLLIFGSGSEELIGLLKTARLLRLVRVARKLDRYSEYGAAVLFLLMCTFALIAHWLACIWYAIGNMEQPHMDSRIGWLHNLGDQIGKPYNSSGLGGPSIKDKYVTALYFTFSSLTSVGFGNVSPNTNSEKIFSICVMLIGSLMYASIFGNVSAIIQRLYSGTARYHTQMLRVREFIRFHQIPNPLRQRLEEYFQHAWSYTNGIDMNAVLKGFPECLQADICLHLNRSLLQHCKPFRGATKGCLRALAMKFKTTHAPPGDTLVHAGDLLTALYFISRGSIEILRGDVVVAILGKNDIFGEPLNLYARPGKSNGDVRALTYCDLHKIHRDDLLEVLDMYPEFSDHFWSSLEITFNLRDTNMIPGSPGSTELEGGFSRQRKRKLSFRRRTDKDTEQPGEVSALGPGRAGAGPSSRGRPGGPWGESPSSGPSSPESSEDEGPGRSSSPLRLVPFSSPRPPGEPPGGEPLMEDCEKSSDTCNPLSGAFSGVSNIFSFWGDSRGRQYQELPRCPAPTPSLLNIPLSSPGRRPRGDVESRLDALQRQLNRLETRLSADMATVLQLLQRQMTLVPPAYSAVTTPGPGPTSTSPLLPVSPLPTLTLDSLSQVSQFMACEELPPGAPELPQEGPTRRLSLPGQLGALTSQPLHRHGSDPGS

[15] = molecular target: Mannose-6-phosphate isomerase (Homo sapiens, UniProt P34949); experiment: human PMI inhibitors, high substrate, primary screen, biochemical, fluorescence intensity, high mannose 6-phosphate (AID 1220)
Chain of Mannose-6-phosphate isomerase (P34949 whole entry): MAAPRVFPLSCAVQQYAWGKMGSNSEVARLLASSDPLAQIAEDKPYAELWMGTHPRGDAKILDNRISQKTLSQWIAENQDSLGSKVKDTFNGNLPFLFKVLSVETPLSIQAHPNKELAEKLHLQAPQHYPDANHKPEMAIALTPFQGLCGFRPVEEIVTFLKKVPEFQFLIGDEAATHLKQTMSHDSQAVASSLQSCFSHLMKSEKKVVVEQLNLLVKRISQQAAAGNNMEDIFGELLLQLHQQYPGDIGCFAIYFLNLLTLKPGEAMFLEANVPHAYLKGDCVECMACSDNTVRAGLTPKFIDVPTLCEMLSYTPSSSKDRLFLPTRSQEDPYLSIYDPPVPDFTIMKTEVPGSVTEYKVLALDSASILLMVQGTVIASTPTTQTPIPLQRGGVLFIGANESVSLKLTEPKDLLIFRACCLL

cells [16] = format: functional, cell-based
[17] = molecular target: T5, Nuclear receptor subfamily 0 group B member 1 (Homo sapiens, UniProt P51843); format: functional, cell-based;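 further: HEK293T cells transfected with SF-1 and DAX-1 plus StAR promoter luciferase reporter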
T5 sequence (P51843 whole entry): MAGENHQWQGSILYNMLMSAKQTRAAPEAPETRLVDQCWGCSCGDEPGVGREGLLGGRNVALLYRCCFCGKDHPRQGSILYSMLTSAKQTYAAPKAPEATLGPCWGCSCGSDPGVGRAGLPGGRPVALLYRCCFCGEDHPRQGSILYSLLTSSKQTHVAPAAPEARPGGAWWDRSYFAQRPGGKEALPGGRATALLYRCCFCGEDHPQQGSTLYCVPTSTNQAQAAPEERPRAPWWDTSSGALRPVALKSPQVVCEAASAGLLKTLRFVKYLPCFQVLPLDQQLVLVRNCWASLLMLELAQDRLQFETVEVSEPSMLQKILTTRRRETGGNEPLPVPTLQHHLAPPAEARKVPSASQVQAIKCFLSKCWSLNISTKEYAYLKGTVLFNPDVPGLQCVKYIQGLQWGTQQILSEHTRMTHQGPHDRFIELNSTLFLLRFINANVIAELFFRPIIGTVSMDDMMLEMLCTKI

[18] = molecular target: T6, Oxysterols receptor LXR-beta (Homo sapiens, UniProt P55055); format: functional, cell-based;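 further: Cell-based luminescence dose-response assay of agonist activity at LXR, run as a confirmatory counterscreen to a daf-12 agonist screen; HEK293 cells with Gal4-LXR fusion and GAL4-driven luciferase reporter; agonist potency from rising luciferase signal of a Gal4-LXR reporter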
T6 sequence (P55055 whole entry): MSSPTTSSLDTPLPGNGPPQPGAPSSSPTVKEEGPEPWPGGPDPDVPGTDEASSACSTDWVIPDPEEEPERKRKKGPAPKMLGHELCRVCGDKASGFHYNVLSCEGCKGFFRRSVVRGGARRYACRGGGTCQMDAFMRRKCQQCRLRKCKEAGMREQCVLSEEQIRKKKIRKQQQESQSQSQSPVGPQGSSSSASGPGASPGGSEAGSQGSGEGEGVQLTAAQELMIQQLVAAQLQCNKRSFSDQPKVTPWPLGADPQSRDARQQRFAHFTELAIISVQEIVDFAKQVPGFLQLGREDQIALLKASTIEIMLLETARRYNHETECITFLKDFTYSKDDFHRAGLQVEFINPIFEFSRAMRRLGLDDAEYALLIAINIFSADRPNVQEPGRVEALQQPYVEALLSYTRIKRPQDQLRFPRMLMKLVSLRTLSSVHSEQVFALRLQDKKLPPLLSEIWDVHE

cells [19] = experiment: cells

EC50 [1]: > 300 µM (not active)
EC50 [2]: > 300 µM (not active)
IC50 [3]: > 66 µM (inactive)
IC50 [4]: > 66 µM (inactive)
AC50 [5]: 17 µM (active)
IC50 [7]: > 100 µM (active)
Compound: CCn1c(C)cc(=S)c2ccccc21
CC50 [6]: > 40 µM (active)

Compound: CCN(CC)S(=O)(=O)c1ccc(S(=O)(=O)Nc2c(C)nn(C)c2C)cc1
AC50 [8]: 2.24 µM (active)
AC50 [9]: 36.6 µM (active)
AC50 [10]: 27.4 µM (active)
IC50 (Protein Wnt-3a): 8.16 µM (active)
AC50 [11]: 1.06 µM (active)

EC50 [1]: > 300 µM (not active)
EC50 [2]: > 300 µM (inconclusive)
IC50 [12]: 4.93 µM (active)
IC50 [13]: 6 µM (active)
Compound: CC(=O)c1ccc(C(=O)Nc2sc3c(c2C(N)=O)CCN(Cc2ccccc2)C3)cc1

Compound: CCOc1ccccc1NC(=S)NC(=O)c1ccco1
EC50 [14]: 1.25 µM (active)

Compound: CNC(=O)c1ccc(NC(=O)CN2c3cccc4cccc(c34)S2(=O)=O)cc1
EC50 [14]: 7.62 µM (active)

IC50 [15]: > 50 µM (not active)
IC50 [7]: > 100 µM (active)
Compound: COc1ccc(NC(=O)N2c3ccc(OC)cc3C(C)=CC2(C)C)cc1
CC50 [6]: > 40 µM (active)

Compound: O=C(Nc1ccccn1)c1sc2cccc(F)c2c1Cl
IC50 (cells [16]): > 67.6 µM (inactive)
IC50 [17]: > 0.834 µM (active)
EC50 [18]: > 67.6 µM (inactive)
EC50 (cells [19]): > 67.6 µM (inactive)
